# Experimental data: PubChem BioAssay AID1259407 (Chemical Carcinogenesis Research Information System (CCRIS), 2018)
# Activity calls are given as the source filed them. How the calls were made is not given here.
# System: CCRIS mutagenicity, Ames/micronucleus/aberration tests
# Assay: CCRIS mutagenicity studies
# [1] = Test System: AMES SALMONELLA TYPHIMURIUM, Strain/Indicator: TA1535, Metabolic Activation: NONE, Method: PREINCUBATION
# [2] = Test System: AMES SALMONELLA TYPHIMURIUM, Strain/Indicator: TA1537, Metabolic Activation: NONE, Method: PREINCUBATION
# [3] = Test System: AMES SALMONELLA TYPHIMURIUM, Strain/Indicator: TA98, Metabolic Activation: NONE, Method: PREINCUBATION
# [4] = Test System: AMES SALMONELLA TYPHIMURIUM, Strain/Indicator: TA100, Metabolic Activation: NONE, Method: PREINCUBATION
# [5] = Test System: AMES SALMONELLA TYPHIMURIUM, Strain/Indicator: TA100, Metabolic Activation: RAT, LIVER, S-9, AROCLOR 1254, Method: STANDARD PLATE
# [6] = Test System: AMES SALMONELLA TYPHIMURIUM, Strain/Indicator: TA98, Metabolic Activation: NONE, Method: STANDARD PLATE
# [7] = Test System: AMES SALMONELLA TYPHIMURIUM, Strain/Indicator: TA98, Metabolic Activation: RAT, LIVER, S-9, AROCLOR 1254, Method: STANDARD PLATE
# [8] = Test System: AMES SALMONELLA TYPHIMURIUM, Strain/Indicator: TA100, Metabolic Activation: NONE, Method: STANDARD PLATE
structure (smiles),measurement,setting,value
Nc1cccc2nc3ccccc3c(N)c12,mutagenic call,[1],inactive; negative
same,mutagenic call,"Test System: AMES SALMONELLA TYPHIMURIUM, Strain/Indicator: TA1535, Metabolic Activation: RAT, LIVER, S-9, TETRACHLOROBIPHENYL, Method: PREINCUBATION",active; positive
same,mutagenic call,[2],active; positive
same,mutagenic call,"Test System: AMES SALMONELLA TYPHIMURIUM, Strain/Indicator: TA1537, Metabolic Activation: RAT, LIVER, S-9, TETRACHLOROBIPHENYL, Method: PREINCUBATION",active; positive
same,mutagenic call,"Test System: AMES SALMONELLA TYPHIMURIUM, Strain/Indicator: TA1538, Metabolic Activation: NONE, Method: PREINCUBATION",inactive; negative
same,mutagenic call,"Test System: AMES SALMONELLA TYPHIMURIUM, Strain/Indicator: TA1538, Metabolic Activation: RAT, LIVER, S-9, TETRACHLOROBIPHENYL, Method: PREINCUBATION",active; positive
same,mutagenic call,"Test System: AMES SALMONELLA TYPHIMURIUM, Strain/Indicator: TA1975, Metabolic Activation: RAT, LIVER, S-9, TETRACHLOROBIPHENYL, Method: PREINCUBATION",active; positive
same,mutagenic call,"Test System: AMES SALMONELLA TYPHIMURIUM, Strain/Indicator: TA1977, Metabolic Activation: NONE, Method: PREINCUBATION",active; positive
same,mutagenic call,"Test System: AMES SALMONELLA TYPHIMURIUM, Strain/Indicator: TA1977, Metabolic Activation: RAT, LIVER, S-9, TETRACHLOROBIPHENYL, Method: PREINCUBATION",active; positive
same,mutagenic call,"Test System: AMES SALMONELLA TYPHIMURIUM, Strain/Indicator: TA1978, Metabolic Activation: RAT, LIVER, S-9, TETRACHLOROBIPHENYL, Method: PREINCUBATION",active; positive
Oc1ccc([C@H]2COc3cc(O)ccc3C2)cc1,mutagenic call,"End Point: IN VITRO MICRONUCLEUS, Test System: CHINESE HAMSTER V79 CELLS, Metabolic Activation: NONE",active; positive
O=S1(=O)CC=CC1,mutagenic call,"End Point: IN VITRO CHROMOSOMAL ABERRATIONS, Test System: CHO-LB CELLS, Metabolic Activation: NONE",inactive; negative
same,mutagenic call,"End Point: IN VITRO CHROMOSOMAL ABERRATIONS, Test System: CHO-LB CELLS, Metabolic Activation: RAT, LIVER, S-9, AROCLOR 1254",inactive; negative
same,mutagenic call,"Test System: AMES SALMONELLA TYPHIMURIUM, Strain/Indicator: TA98, Metabolic Activation: HAMSTER, LIVER, S-9, AROCLOR 1254 (10%), Method: PREINCUBATION",inactive; negative
same,mutagenic call,[3],inactive; negative
same,mutagenic call,"Test System: AMES SALMONELLA TYPHIMURIUM, Strain/Indicator: TA98, Metabolic Activation: RAT, LIVER, S-9, AROCLOR 1254 (10%), Method: PREINCUBATION",inactive; negative
same,mutagenic call,"Test System: AMES SALMONELLA TYPHIMURIUM, Strain/Indicator: TA100, Metabolic Activation: HAMSTER, LIVER, S-9, AROCLOR 1254 (10%), Method: PREINCUBATION",inactive; negative
same,mutagenic call,[4],inactive; negative
same,mutagenic call,"Test System: AMES SALMONELLA TYPHIMURIUM, Strain/Indicator: TA100, Metabolic Activation: RAT, LIVER, S-9, AROCLOR 1254 (10%), Method: PREINCUBATION",inactive; negative
same,mutagenic call,"Test System: AMES SALMONELLA TYPHIMURIUM, Strain/Indicator: TA1535, Metabolic Activation: HAMSTER, LIVER, S-9, AROCLOR 1254 (10%), Method: PREINCUBATION",inactive; negative
same,mutagenic call,[1],inactive; negative
same,mutagenic call,"Test System: AMES SALMONELLA TYPHIMURIUM, Strain/Indicator: TA1535, Metabolic Activation: RAT, LIVER, S-9, AROCLOR 1254 (10%), Method: PREINCUBATION",inactive; negative
same,mutagenic call,"Test System: AMES SALMONELLA TYPHIMURIUM, Strain/Indicator: TA1537, Metabolic Activation: HAMSTER, LIVER, S-9, AROCLOR 1254 (10%), Method: PREINCUBATION",inactive; negative
same,mutagenic call,[2],inactive; negative
same,mutagenic call,"Test System: AMES SALMONELLA TYPHIMURIUM, Strain/Indicator: TA1537, Metabolic Activation: RAT, LIVER, S-9, AROCLOR 1254 (10%), Method: PREINCUBATION",inactive; negative
O=C1c2ccccc2-c2ccc3ccc4ccccc4c3c21,mutagenic call,[5],inactive; negative
C=Cc1ccncc1,mutagenic call,[6],inactive; negative
same,mutagenic call,[7],inactive; negative
same,mutagenic call,[8],inactive; negative
same,mutagenic call,[5],inactive; negative
same,mutagenic call,"Test System: AMES SALMONELLA TYPHIMURIUM, Strain/Indicator: TA1535, Metabolic Activation: NONE, Method: STANDARD PLATE",inactive; negative
same,mutagenic call,"Test System: AMES SALMONELLA TYPHIMURIUM, Strain/Indicator: TA1535, Metabolic Activation: RAT, LIVER, S-9, AROCLOR 1254, Method: STANDARD PLATE",inactive; negative
same,mutagenic call,"Test System: AMES SALMONELLA TYPHIMURIUM, Strain/Indicator: TA1538, Metabolic Activation: NONE, Method: STANDARD PLATE",inactive; negative
same,mutagenic call,"Test System: AMES SALMONELLA TYPHIMURIUM, Strain/Indicator: TA1538, Metabolic Activation: RAT, LIVER, S-9, AROCLOR 1254, Method: STANDARD PLATE",inactive; negative
same,mutagenic call,"Test System: UDS RAT HEPATOCYTES, Strain/Indicator: THY INCORP, Metabolic Activation: NONE",inactive; negative
NC(=O)N(CCCC(=O)O)N=O,mutagenic call,[4],active; positive
same,mutagenic call,[1],active; positive
same,mutagenic call,"Test System: E. COLI B, Strain/Indicator: H/R30R, Metabolic Activation: NONE",active; positive
same,mutagenic call,"Test System: E. COLI B, Strain/Indicator: HS30R, Metabolic Activation: NONE",active; positive
C1CN1c1nc(N2CC2)nc(N2CC2)n1,mutagenic call,[6],active; positive
same,mutagenic call,[8],active; positive
same,mutagenic call,"Test System: CHINESE HAMSTER V-79, Strain/Indicator: V-79/6-THIOGUANINE, Metabolic Activation: NONE, Method: FLASK ASSAY",active; positive
same,mutagenic call,"Test System: E. COLI, Strain/Indicator: WP2 (HCR), Metabolic Activation: NONE, Method: STANDARD PLATE",active; positive
C=C(C)C1C=C2C(COC(=O)CCCCCCCCCCCCCCCCC)=CC=C2C(C)=CC1 (stereo not drawn),mutagenic call,[6],inactive; negative
same,mutagenic call,[7],inactive; negative
same,mutagenic call,[8],active; positive
same,mutagenic call,[5],active; positive
CCC12OC1(C(=O)OC)C(=O)OC2C (stereo not drawn),mutagenic call,"Test System: AMES SALMONELLA TYPHIMURIUM, Strain/Indicator: TA98, Metabolic Activation: NONE, Method: DISK ASSAY",inactive; negative
same,mutagenic call,[6],inactive; negative
same,mutagenic call,"Test System: AMES SALMONELLA TYPHIMURIUM, Strain/Indicator: TA98, Metabolic Activation: RAT, LIVER, S-9, AROCLOR 1254, Method: DISK ASSAY",inactive; negative
same,mutagenic call,[7],active; positive
OCc1ccc2ccc3cccc4ccc1c2c34,mutagenic call,"Test System: AMES SALMONELLA TYPHIMURIUM, Strain/Indicator: TA98, Metabolic Activation: HUMAN, LIVER, CYTOSOL, PAPS, Method: PREINCUBATION",active; positive
same,mutagenic call,[3],inactive; negative
same,mutagenic call,"Test System: AMES SALMONELLA TYPHIMURIUM, Strain/Indicator: TA98, Metabolic Activation: RAT, LIVER, CYTOSOL, KCL, Method: PREINCUBATION",inactive; negative
same,mutagenic call,"Test System: AMES SALMONELLA TYPHIMURIUM, Strain/Indicator: TA98, Metabolic Activation: RAT, LIVER, CYTOSOL, PAPS, KCL, Method: PREINCUBATION",active; positive
same,mutagenic call,"Test System: AMES SALMONELLA TYPHIMURIUM, Strain/Indicator: TA98, Metabolic Activation: RAT, LIVER, CYTOSOL, PAPS, Method: PREINCUBATION",active; positive
same,mutagenic call,"Test System: AMES SALMONELLA TYPHIMURIUM, Strain/Indicator: TA98, Metabolic Activation: RAT, LIVER, PAPS, KCL, Method: PREINCUBATION",inactive; negative
same,mutagenic call,"Test System: AMES SALMONELLA TYPHIMURIUM, Strain/Indicator: TA98, Metabolic Activation: RAT, LIVER, S-9, NADPH, Method: PREINCUBATION",active; positive
same,mutagenic call,"Test System: UDS CHINESE HAMSTER V-79 CELLS, Metabolic Activation: NONE, Method: AUTORADIOGRAPHY",active; positive
same,mutagenic call,"Test System: UDS CHINESE HAMSTER V-79 CELLS, Strain/Indicator: V-79-MZ/CYTIDINE INCORPORATION, Metabolic Activation: NONE, Method: AUTORADIOGRAPHY",inactive; negative
same,mutagenic call,"Test System: UDS CHINESE HAMSTER V-79 CELLS, Strain/Indicator: V-79-RHST20/CYTIDINE INCORPORATION, Metabolic Activation: NONE, Method: AUTORADIOGRAPHY",active; positive
same,mutagenic call,"Test System: UDS CHINESE HAMSTER V-79 CELLS, Strain/Indicator: V-79-RHSTA/CYTIDINE INCORPORATION, Metabolic Activation: NONE, Method: AUTORADIOGRAPHY",active; positive
same,mutagenic call,"Test System: UDS CHINESE HAMSTER V-79 CELLS, Strain/Indicator: V-79-RPST-IV/CYTIDINE INCORPORATION, Metabolic Activation: NONE, Method: AUTORADIOGRAPHY",active; positive
